# Measurements published in paper PMC12621043, “Un-LOK-ing a New Approach for Conformational Selective Targeting of STK10 (LOK)” (ACS Medicinal Chemistry Letters, 2025).
# Experiments:
# Assay in all cases: DSF Tm panel
# Format in all cases: binding
# Details in all cases: 10 μM compound
# [1] = molecular target: T1, MERTK (Homo sapiens, UniProt Q12866)
# T1 construct: purchased in-house DSF kinase panel (SGC-style construct names; the trailing letter is the construct ID)
# T1 sequence (Q12866 570-864): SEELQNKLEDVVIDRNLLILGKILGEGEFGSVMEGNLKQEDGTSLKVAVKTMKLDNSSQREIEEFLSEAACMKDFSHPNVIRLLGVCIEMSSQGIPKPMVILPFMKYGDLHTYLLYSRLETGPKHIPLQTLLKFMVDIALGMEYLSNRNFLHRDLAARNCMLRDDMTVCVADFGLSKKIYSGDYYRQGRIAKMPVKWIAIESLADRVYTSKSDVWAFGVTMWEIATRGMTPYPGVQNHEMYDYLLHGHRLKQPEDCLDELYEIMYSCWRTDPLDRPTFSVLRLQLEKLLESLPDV
# [2] = molecular target: T2, PHKG2A (Homo sapiens, UniProt P15735)
# T2 construct: purchased in-house DSF kinase panel (SGC-style construct names; the trailing letter is the construct ID)
# T2 sequence (P15735 6-293): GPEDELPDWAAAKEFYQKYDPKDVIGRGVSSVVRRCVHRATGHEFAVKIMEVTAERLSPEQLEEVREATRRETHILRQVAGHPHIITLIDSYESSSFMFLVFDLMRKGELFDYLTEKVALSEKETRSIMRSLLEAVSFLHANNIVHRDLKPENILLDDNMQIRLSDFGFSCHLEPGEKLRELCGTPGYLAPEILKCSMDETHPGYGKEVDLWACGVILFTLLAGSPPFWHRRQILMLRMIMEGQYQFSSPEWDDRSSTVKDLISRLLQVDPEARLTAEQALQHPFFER
# [3] = molecular target: T3, CSNK1EA (Homo sapiens, UniProt P49674)
# T3 construct: purchased in-house DSF kinase panel (SGC-style construct names; the trailing letter is the construct ID)
# T3 sequence (P49674 1-294): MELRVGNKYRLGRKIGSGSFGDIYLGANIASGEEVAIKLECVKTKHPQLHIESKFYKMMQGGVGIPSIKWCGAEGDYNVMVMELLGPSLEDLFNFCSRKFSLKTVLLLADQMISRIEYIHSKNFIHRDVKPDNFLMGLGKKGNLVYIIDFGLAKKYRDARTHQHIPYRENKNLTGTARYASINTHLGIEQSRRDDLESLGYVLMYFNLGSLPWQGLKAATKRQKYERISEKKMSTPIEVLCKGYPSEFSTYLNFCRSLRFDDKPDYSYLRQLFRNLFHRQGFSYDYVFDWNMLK
# [4] = molecular target: T4, MAP2K7A (Homo sapiens, UniProt O14733)
# T4 construct: purchased in-house DSF kinase panel (SGC-style construct names; the trailing letter is the construct ID)
# T4 sequence (O14733 120-400): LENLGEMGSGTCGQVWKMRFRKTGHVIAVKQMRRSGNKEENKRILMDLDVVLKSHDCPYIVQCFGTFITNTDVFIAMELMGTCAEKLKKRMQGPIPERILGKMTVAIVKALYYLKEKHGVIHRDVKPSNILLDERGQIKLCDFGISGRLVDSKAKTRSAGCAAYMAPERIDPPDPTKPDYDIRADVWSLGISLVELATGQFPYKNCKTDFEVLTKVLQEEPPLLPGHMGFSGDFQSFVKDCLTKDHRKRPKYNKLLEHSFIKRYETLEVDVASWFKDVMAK
# [5] = molecular target: T5, TIF1A (Homo sapiens, UniProt O15164)
# T5 construct: purchased in-house DSF kinase panel (SGC-style construct names; the trailing letter is the construct ID)
# T5 sequence (O15164 1-1050): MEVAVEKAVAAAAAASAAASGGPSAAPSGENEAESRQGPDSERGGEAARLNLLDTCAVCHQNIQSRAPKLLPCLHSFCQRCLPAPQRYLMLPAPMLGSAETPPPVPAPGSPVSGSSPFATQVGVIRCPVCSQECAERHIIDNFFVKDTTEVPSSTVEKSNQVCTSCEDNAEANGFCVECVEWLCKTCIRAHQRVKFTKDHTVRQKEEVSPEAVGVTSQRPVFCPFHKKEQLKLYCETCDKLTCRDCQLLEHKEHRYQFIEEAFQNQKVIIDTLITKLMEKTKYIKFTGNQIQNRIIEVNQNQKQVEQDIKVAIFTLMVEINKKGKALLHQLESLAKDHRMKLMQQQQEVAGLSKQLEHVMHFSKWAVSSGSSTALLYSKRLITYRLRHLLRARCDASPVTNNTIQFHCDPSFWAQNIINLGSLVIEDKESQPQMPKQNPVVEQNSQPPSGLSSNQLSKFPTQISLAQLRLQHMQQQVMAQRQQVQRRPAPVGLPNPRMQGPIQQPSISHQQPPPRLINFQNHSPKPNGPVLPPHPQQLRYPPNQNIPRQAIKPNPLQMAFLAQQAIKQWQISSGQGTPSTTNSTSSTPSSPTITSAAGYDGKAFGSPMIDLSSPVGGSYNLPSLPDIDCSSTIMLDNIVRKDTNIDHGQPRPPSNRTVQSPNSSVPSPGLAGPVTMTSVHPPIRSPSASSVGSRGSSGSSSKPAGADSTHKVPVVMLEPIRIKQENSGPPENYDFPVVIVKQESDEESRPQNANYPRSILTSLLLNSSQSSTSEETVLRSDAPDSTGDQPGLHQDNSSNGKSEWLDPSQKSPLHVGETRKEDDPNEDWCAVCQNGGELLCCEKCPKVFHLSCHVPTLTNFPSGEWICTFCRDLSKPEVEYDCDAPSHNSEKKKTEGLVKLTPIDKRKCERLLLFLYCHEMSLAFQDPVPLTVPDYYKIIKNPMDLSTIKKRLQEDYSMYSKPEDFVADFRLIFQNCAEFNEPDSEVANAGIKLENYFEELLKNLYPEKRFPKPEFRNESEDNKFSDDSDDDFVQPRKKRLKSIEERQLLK
SMILES,ΔTm at 10 µM [1],ΔTm at 10 µM [2],ΔTm at 10 µM [3],ΔTm at 10 µM [4],ΔTm at 10 µM [5]
Cc1cc(Br)ccc1CNC(=O)Nc1ccc2cc1OCCOCCNc1ccn3ncc-2c3n1 [compound 24],–,–,0.7 °C,0.3 °C,1 °C
O=C(NCc1ccc(C(F)(F)F)cc1)Nc1ccc2cc1OCCOCCNc1ccn3ncc-2c3n1 [compound 28],–,–,-0.2 °C,1.1 °C,1.6 °C
COc1ccccc1CNC(=O)Nc1ccc2cc1OCCOCCNc1ccn3ncc-2c3n1 [compound 29],–,–,0.7 °C,0.1 °C,0.5 °C
Cc1ccc(F)cc1CNC(=O)Nc1ccc2cc1OCCOCCNc1ccn3ncc-2c3n1 [compound 26],–,–,0.7 °C,0.1 °C,0.4 °C
CN1CCN(C(=O)Nc2ccc3cc2OCCOCCNc2ccn4ncc-3c4n2)CC1 [compound 35],0.4 °C,-0.1 °C,–,–,–
C[C@H](NC(=O)Nc1ccc2cc1OCCOCCNc1ccn3ncc-2c3n1)c1ccccc1 [compound 34],–,–,0.4 °C,0 °C,-0.1 °C
O=C(NCc1ccccc1C(F)(F)F)Nc1ccc2cc1OCCOCCNc1ccn3ncc-2c3n1 [compound 27],–,–,0 °C,1 °C,1.3 °C

# The remaining lines, values ahead:
ΔTm at 10 µM [1],ΔTm at 10 µM [2],ΔTm at 10 µM [3],ΔTm at 10 µM [4],ΔTm at 10 µM [5],SMILES
1.8 °C,0.4 °C,–,–,–,O=C(NCc1cccc(Cl)c1)Nc1ccc2cc1OCCOCCNc1ccn3ncc-2c3n1 [compound 18]
1.6 °C,0.6 °C,–,–,–,O=C(NCc1ccccc1Cl)Nc1ccc2cc1OCCOCCNc1ccn3ncc-2c3n1 [compound 17]
2.2 °C,0.8 °C,–,–,–,O=C(NCc1ccc(Cl)cc1Cl)Nc1ccc2cc1OCCOCCNc1ccn3ncc-2c3n1 [compound 20]
3.1 °C,0.5 °C,–,–,–,Cc1cc(Cl)ccc1CNC(=O)Nc1ccc2cc1OCCOCCNc1ccn3ncc-2c3n1 [compound 23]
–,–,0.3 °C,0.5 °C,0.5 °C,COc1ccc(CNC(=O)Nc2ccc3cc2OCCOCCNc2ccn4ncc-3c4n2)cc1F [compound 32]
–,–,0.6 °C,0 °C,0.6 °C,COc1cc(CNC(=O)Nc2ccc3cc2OCCOCCNc2ccn4ncc-3c4n2)ccc1F [compound 33]
–,–,0.6 °C,0.5 °C,0.2 °C,COc1ccc(CNC(=O)Nc2ccc3cc2OCCOCCNc2ccn4ncc-3c4n2)cc1 [compound 31]
–,–,0.7 °C,0.1 °C,0.3 °C,COc1cccc(CNC(=O)Nc2ccc3cc2OCCOCCNc2ccn4ncc-3c4n2)c1 [compound 30]
2.5 °C,1.2 °C,–,–,–,O=C(NCc1ccc(Cl)cc1)Nc1ccc2cc1OCCOCCNc1ccn3ncc-2c3n1 [compound 19]
2.7 °C,0.9 °C,–,–,–,O=C(NCc1ccc(Cl)cc1F)Nc1ccc2cc1OCCOCCNc1ccn3ncc-2c3n1 [compound 21]
1.4 °C,1.3 °C,–,–,–,O=C(NCc1ccccc1)Nc1ccc2cc1OCCOCCNc1ccn3ncc-2c3n1 [compound 16]
